This note sets out measurements from article PMC5946847, “Synthesis and biological evaluation of aryl-oxadiazoles as inhibitors of Mycobacterium tuberculosis” (Bioorganic & Medicinal Chemistry Letters, 2018).

≈ marks a conversion by molar mass, not a printed value. Read-outs that look alike come from different tables or passages of the source.

Data set [1] can be described thus: Mouse pharmacokinetic studies (intravenous and oral). The class given is in vivo. The note with it: for AUC0–24: 24 h. The procedure:
5. Method for PK studies:
In Vivo Pharmacokinetic Studies. Compounds 1, 2 and 3 were administered intravenously at 1 mg/kg (1 ml/kg) in Dimethyl acetamide 25%v/v, ethanol 15%v/v, propylene glycol 10%v/v, 2 pyrrolidone 25%v/v, PW 25%v/v in fed animal, or orally at 10 mg/kg (10 ml/kg) in Hydroxyethylcellulose 1% w/v/polysorbate 80 0.25% v/v/Antifoam 1510-US 0.05% v/v/PW (probe sonicate), in fasted animals, respectively. Additional study was conducted for compound 2 wherein the animals were dosed 1-aminobenzotriazole (100 mpk) intraperitoneally one hour prior to dosing compound 2 either intravenously (fed animals) at 1 mg/kg or orally (fasted animals) at 10 mg/kg. Three animals were dosed per study arm.
Serial blood samples were collected at 0.08, 0.25, 0.75, 2, 4, 8, 24 for intravenous and 0.25, 0.5, 1, 2, 4, 8, 24 for oral administration. The blood was collected via a tail snip directly into a 20-μL EDTA-coated capillary and immediately spotted onto a Whatman DMPK-C dried blood sample (DBS) card and analysed using LC-MS/MS, as described previously.^7 Noncompartmental pharmacokinetic parameters were calculated using Watson version 7.4 (Thermo Scientific, Waltham, MA).

Data set [2] is described as follows: in vitro. As to conditions: mouse, plasma. The class given is in vitro ADME. The text has this: Fraction unbound in mouse plasma:^8
Data set [3] in a line: Mouse microsomal stability. The class given is in vitro ADME. The note with it: mouse, microsomes; for Mouse microsome (% metabolized in 30 min): 0.5 h, 2 μM. As for the experimental part:
4. Method for microsomal stability:
To determine microsomal turnover, test compounds were incubated (2 μM) with liver microsomes in the presence of NADPH, and loss of parent molecule was measured by LC-MS after 30 min.

Data set [4] can be described thus: physchem.
Data set [5] deals with M. tuberculosis H37Rv expressing DsRed. Briefly: microbe, parasite or virus in culture. Format: cell-based. The note with it: Mycobacterium tuberculosis, average ± standard deviation for at least 2 runs, read-out: 7H9-Ty-BT MIC.
Data set [6] has the same test system. Briefly: microbe, parasite or virus in culture. The note with it: Mycobacterium tuberculosis, read-out: 7H9-Tw-OADC MIC. The class given is cell-based.
Data set [7] relates to Vero cells (ATCC CCL81). The data set can be described thus: Cytotoxicity in Vero cells (CellTiter-Glo). Format: cell-based. As to conditions: Chlorocebus sabaeus, 48 h, 2 days. The procedure: Vero cells (ATCC® CCL81) were grown in DMEM, high glucose, GlutaMAX™ (Invitrogen), 10% FBS, 50 units/mL penicillin, and 50 µg/mL streptomycin, seeded as 1200 cells per well in 384-well plates and incubated for 24 h at 37 °C with 5% CO2. Compounds were added as a 3-fold serial dilution series and cells incubated for 2 days at 37 °C with 5% CO2. Viability was measured using CellTiter-Glo® Reagent (Promega).
On the technique in general: Cellular ATP, detected with luciferase, serves as a proxy for viable cell number.

Take `c1csc(-c2nnc(Cc3cccc4ccccc34)o2)c1` [Compound 1]: in data set [1] (in vivo, iv, 1 mg/kg), the “AUC,u0–24” value was found to be 32 ng·h/mL, the “CL,u” value stood at 1727 mL/min/kg, the Cl turned out to be 19 mL/min/kg and the Vdss amounted to 0.9 L/kg. Moreover, in data set [1] (in vivo, iv, 1 mg/kg, AUC0–24), the AUC(0-t) (usually exposure summed from dosing to a finite time, without extrapolation to infinity) was determined as 2900 ng·h/mL. In data set [1] (in vivo, po, 10 mg/kg), the Cmax – broadly, the highest concentration seen after dosing – came to 19 ng/mL; the “Cmax,u” value is 0.2 ng/mL; the Tmax – broadly, the time from dosing to the highest level – turned out to be 2.75 h. In addition, in data set [1] (in vivo, po, 10 mg/kg, AUC0–24), the AUC(0-t) at 24 h came out at 31 ng·h/mL. The t1/2 in data set [1] (intravenous 1 mg/kg) is on record as 1.2 h. The fraction unbound (commonly free concentration divided by total concentration) at 4.5 h, 1 µM in data set [2] came to 0.011. In data set [3], the intrinsic clearance (CLint scaled) (in general, a measure of how fast metabolising enzymes remove a compound, apart from limits set by blood flow) at 2 μM is 3310 mL/min/kg and the “Mouse microsome (% metabolized in 30 min)” value is recorded as 99%. Besides, the solubility (in general, the dissolved amount per volume that the medium holds) in data set [4] (pH 7.4) was less than 1 µg/mL.
Regarding `CN(Cc1nnc(-c2ccco2)o1)Cc1c(F)cccc1Cl.O=C(O)/C=C\C(=O)O` [Compound 2 maleate salt], the Aqueous solubility – broadly, the concentration that dissolves in the medium under given conditions – at pH 6 (pH 6) was 0.687 mg/mL. The “Aqueous solubility at pH 7.4” value (pH 7.4) is recorded as 0.717 mg/mL.
As for `CN(Cc1nnc(-c2ccco2)o1)Cc1c(F)cccc1Cl` [Compound 2], in data set [1] (in vivo, iv, 1 mg/kg), the “AUC,u0–24” value stood at 37 ng·h/mL, the “CL,u” value amounted to 455 mL/min/kg, the Cl came to 56 mL/min/kg and the Vdss was found to be 1.1 L/kg. Further, in data set [1] (in vivo, iv, 1 mg/kg), the “AUC0–24” value was found to be 300 ng·h/mL. In addition, in data set [1] (in vivo, po, 10 mg/kg), the Cmax was 31 ng/mL, the “Cmax,u” value was 3.8 ng/mL, the “Increase of oral exposure when co-administered with ABT” value is reported as greater than 10 fold and the time of peak concentration (Tmax) is 0.25 h. Moreover, the “AUC0–24” value in data set [1] (in vivo, po, 10 mg/kg) is 48 ng·h/mL. In data set [1] (intravenous 1 mg/kg), this compound had a t1/2 of 0.3 h. Moreover, the half-life (as a rule, how long it takes for the measured level to halve) in data set [1] (whole blood, intravenous 1 mg/kg, co-administered with ABT (100 mg/kg, 1 h pre-dose)) is 1.7 h. In data set [2], the unbound share (fraction unbound) at 4.5 h, 1 µM turned out to be 0.123. For the same compound, in data set [3], the intrinsic clearance (CLint scaled) at 2 μM was determined as 1350 mL/min/kg and the “Mouse microsome (% metabolized in 30 min)” value was determined as 99%. Moreover, the solubility in data set [4] (pH 6) was 49 µg/mL (≈ 152 µM). In data set [4] (pH 7.4), this compound came in with a solubility of 77 µg/mL (≈ 239 µM).
Take `CC1CCc2ccccc2N1Cc1nc(-c2ccsc2)no1` (stereo not shown) [Compound 3]: in data set [1] (in vivo, iv, 1 mg/kg), the “AUC,u0–24” value amounted to 6 ng·h/mL, the “CL,u” value was determined as 2733 mL/min/kg, the Cl worked out at 41 mL/min/kg and the Vdss turned out to be 6.3 L/kg. Further, the area under the curve AUC(0-t) at 24 h in data set [1] (in vivo, iv, 1 mg/kg, AUC0–24) was determined as 430 ng·h/mL. Also, in data set [1] (in vivo, po, 10 mg/kg), the Cmax stood at 9 ng/mL, the “Cmax,u” value turned out to be 0.1 ng/mL and the time of peak concentration (Tmax) is 0.25 h. In data set [1] (in vivo, po, 10 mg/kg, AUC0–24), this compound displayed an AUC(0-t) at 24 h of 10 ng·h/mL. This compound had a t1/2 in data set [1] (intravenous 1 mg/kg) of 2.9 h. The compound also yielded a fraction unbound in data set [2] of less than 0.015. In data set [3], the CLint scaled at 2 μM stood at 1910 mL/min/kg and the “Mouse microsome (% metabolized in 30 min)” value was found to be 65%. Moreover, in data set [4] (pH 7.4), the solubility came to 5 µg/mL (≈ 16.1 µM).
Consider `c1csc(-c2nnc(CN3Cc4ccccc4C3)o2)c1` [Compound 38], for which the MIC was 6.7 ± 1.7 µM (≈ 1.9 µg/mL) in data set [5] and greater than 20 µM in data set [6]. The half-maximal inhibitory concentration (IC50) – broadly, the concentration at which inhibition is half-maximal – in data set [7] is greater than 100 µM. Moreover, the “Mouse microsome (% metabolized in 30 min)” value in data set [3] is 99%. The compound further returned a solubility in data set [4] (pH 7.4) of 12 µg/mL (≈ 42.3 µM).
In the case of `c1ccc(-c2nnc(CN3Cc4ccccc4C3)o2)cc1` [Compound 39], the MIC in data set [5] was 7.5 ± 3.5 µM (≈ 2.08 µg/mL); in data set [6], greater than 20 µM. This compound also yielded a half-inhibitory concentration (IC50) in data set [7] greater than 100 µM. Moreover, in data set [3], the “Mouse microsome (% metabolized in 30 min)” value worked out at 98%. In data set [4] (pH 7.4), this compound yielded a solubility of 20 µg/mL (≈ 72.1 µM).
Take `c1ccc(C2CCCN2Cc2nnc(-c3cccs3)o2)cc1` (stereo not shown) [Compound 40]: the MIC in data set [5] is 9.9 ± 2.1 µM (≈ 3.08 µg/mL); in data set [6], greater than 20 µM. The compound further had an IC50 in data set [7] of 50 µM. Further, the “Mouse microsome (% metabolized in 30 min)” value in data set [3] amounted to 100%. In data set [4] (pH 7.4), this compound returned a solubility of 50 µg/mL (≈ 161 µM).
Regarding `c1ccc(-c2nnc(CN3CCCC3c3ccccc3)o2)cc1` (stereo not shown) [Compound 41], the MIC was 8.3 ± 1.4 µM (≈ 2.53 µg/mL) in data set [5] and greater than 20 µM in data set [6]. Besides, the IC50 in data set [7] was greater than 100 µM. Besides, the “Mouse microsome (% metabolized in 30 min)” value in data set [3] came to 99%. In data set [4] (pH 7.4), this compound yielded a solubility of 34 µg/mL (≈ 111 µM).
